Laboratory results reported in ChEMBL document CHEMBL4020788, “Synthesis, SAR and molecular docking studies of benzo[d]thiazole-hydrazones as potential antibacterial and antifungal agents” (2017).
Values after ≈ are worked out from the molar mass of the structure shown. Active and inactive are the calls of the source. The rule behind the calls is not given here.

How the values were obtained:
Type in all cases: functional
Fusarium oxysporum [1] = experiment: Antifungal activity against Fusarium oxysporum at 100 ug/ml after 48 hrs by agar well diffusion method
Escherichia coli [2] = experiment: Antibacterial activity against Escherichia coli incubated for overnight by microdilution method
Staphylococcus aureus [3] = experiment: Antibacterial activity against methicillin resistant Staphylococcus aureus MRSA090 at 75 ug/ml after 24 hrs by agar well diffusion method; details: MRSA090, 24 h, read-out: DIZ
Bacillus subtilis [4] = experiment: Antibacterial activity against Bacillus subtilis incubated for overnight by microdilution method
Staphylococcus aureus [5] = experiment: Antibacterial activity against Staphylococcus aureus at 100 ug/ml after 24 hrs by agar well diffusion method; details: read-out: DIZ
Staphylococcus aureus [6] = experiment: Antibacterial activity against Staphylococcus aureus incubated for overnight by microdilution method
Staphylococcus aureus [7] = experiment: Antibacterial activity against methicillin resistant Staphylococcus aureus MRSA090 at 25 ug/ml after 24 hrs by agar well diffusion method; details: MRSA090, 24 h, read-out: DIZ
Bacillus subtilis [8] = experiment: Antibacterial activity against Bacillus subtilis at 50 ug/ml after 24 hrs by agar well diffusion method; details: read-out: DIZ
Escherichia coli [9] = experiment: Antibacterial activity against Escherichia coli at 75 ug/ml after 24 hrs by agar well diffusion method; details: read-out: DIZ
Fusarium oxysporum [10] = experiment: Antifungal activity against Fusarium oxysporum at 50 ug/ml after 48 hrs by agar well diffusion method
Bacillus subtilis [11] = experiment: Antibacterial activity against Bacillus subtilis at 75 ug/ml after 24 hrs by agar well diffusion method; details: read-out: DIZ
Fusarium verticillioides [12] = experiment: Antifungal activity against Fusarium moniliforme at 75 ug/ml after 48 hrs by agar well diffusion method
Fusarium oxysporum [13] = experiment: Antifungal activity against Fusarium oxysporum at 25 ug/ml after 48 hrs by agar well diffusion method
Fusarium verticillioides [14] = experiment: Antifungal activity against Fusarium moniliforme at 50 ug/ml after 48 hrs by agar well diffusion method
Staphylococcus aureus [15] = experiment: Antibacterial activity against Staphylococcus aureus at 25 ug/ml after 24 hrs by agar well diffusion method; details: read-out: DIZ
Staphylococcus aureus [16] = experiment: Antibacterial activity against methicillin resistant Staphylococcus aureus MRSA090 at 50 ug/ml after 24 hrs by agar well diffusion method; details: MRSA090, 24 h, read-out: DIZ
Klebsiella pneumoniae [17] = experiment: Antibacterial activity against Klebsiella pneumoniae at 50 ug/ml after 24 hrs by agar well diffusion method; details: read-out: DIZ
Fusarium verticillioides [18] = experiment: Antifungal activity against Fusarium moniliforme at 25 ug/ml after 48 hrs by agar well diffusion method
Fusarium verticillioides [19] = experiment: Antifungal activity against Fusarium moniliforme at 100 ug/ml after 48 hrs by agar well diffusion method
Bacillus subtilis [20] = experiment: Antibacterial activity against Bacillus subtilis at 25 ug/ml after 24 hrs by agar well diffusion method; details: read-out: DIZ
Aspergillus niger [21] = experiment: Antifungal activity against Aspergillus niger at 25 ug/ml after 48 hrs by agar well diffusion method
Bacillus subtilis [22] = experiment: Antibacterial activity against Bacillus subtilis at 100 ug/ml after 24 hrs by agar well diffusion method; details: read-out: DIZ
Escherichia coli [23] = experiment: Antibacterial activity against Escherichia coli at 25 ug/ml after 24 hrs by agar well diffusion method; details: read-out: DIZ
Staphylococcus aureus [24] = experiment: Antibacterial activity against Staphylococcus aureus at 75 ug/ml after 24 hrs by agar well diffusion method; details: read-out: DIZ
Klebsiella pneumoniae [25] = experiment: Antibacterial activity against Klebsiella pneumoniae at 25 ug/ml after 24 hrs by agar well diffusion method; details: read-out: DIZ
Escherichia coli [26] = experiment: Antibacterial activity against Escherichia coli at 100 ug/ml after 24 hrs by agar well diffusion method; details: read-out: DIZ
Fusarium oxysporum [27] = experiment: Antifungal activity against Fusarium oxysporum at 75 ug/ml after 48 hrs by agar well diffusion method
Staphylococcus aureus [28] = experiment: Antibacterial activity against methicillin resistant Staphylococcus aureus MRSA090 at 100 ug/ml after 24 hrs by agar well diffusion method; details: MRSA090, 24 h, read-out: DIZ
Staphylococcus aureus [29] = experiment: Antibacterial activity against methicillin resistant Staphylococcus aureus MRSA090 incubated for overnight by microdilution method
Escherichia coli [30] = experiment: Antibacterial activity against Escherichia coli at 50 ug/ml after 24 hrs by agar well diffusion method; details: read-out: DIZ
Aspergillus niger [31] = experiment: Antifungal activity against Aspergillus niger at 50 ug/ml after 48 hrs by agar well diffusion method
Klebsiella pneumoniae [32] = experiment: Antibacterial activity against Klebsiella pneumoniae at 75 ug/ml after 24 hrs by agar well diffusion method; details: read-out: DIZ
Staphylococcus aureus [33] = experiment: Antibacterial activity against Staphylococcus aureus at 50 ug/ml after 24 hrs by agar well diffusion method; details: read-out: DIZ
Klebsiella pneumoniae [34] = experiment: Antibacterial activity against Klebsiella pneumoniae at 100 ug/ml after 24 hrs by agar well diffusion method; details: read-out: DIZ
Aspergillus niger [35] = experiment: Antifungal activity against Aspergillus niger at 100 ug/ml after 48 hrs by agar well diffusion method
Aspergillus niger [36] = experiment: Antifungal activity against Aspergillus niger at 75 ug/ml after 48 hrs by agar well diffusion method
Klebsiella pneumoniae [37] = experiment: Antibacterial activity against Klebsiella pneumoniae incubated for overnight by microdilution method

Row | Structure (SMILES) | diameter of the inhibition zone (DIZ) (Fusarium oxysporum [1]) | MIC (Escherichia coli [2]) [µg/mL] | zone of inhibition at 75 µg/mL (Staphylococcus aureus [3]) [mm] | MIC (Bacillus subtilis [4]) [µg/mL] | zone of inhibition at 100 µg/mL (Staphylococcus aureus [5]) [mm] | MIC (Staphylococcus aureus [6]) [µg/mL] | zone of inhibition at 25 µg/mL (Staphylococcus aureus [7]) [mm] | zone of inhibition at 50 µg/mL (Bacillus subtilis [8]) [mm] | zone of inhibition at 75 µg/mL (Escherichia coli [9]) [mm] | diameter of the inhibition zone (DIZ) (Fusarium oxysporum [10]) | zone of inhibition at 75 µg/mL (Bacillus subtilis [11]) [mm] | diameter of the inhibition zone (DIZ) (Fusarium oxysporum [13]) | zone of inhibition at 25 µg/mL (Staphylococcus aureus [15]) [mm] | zone of inhibition at 50 µg/mL (Staphylococcus aureus [16]) [mm] | zone of inhibition at 50 µg/mL (Klebsiella pneumoniae [17]) [mm] | zone of inhibition at 25 µg/mL (Bacillus subtilis [20]) [mm] | zone of inhibition at 100 µg/mL (Bacillus subtilis [22]) [mm] | zone of inhibition at 25 µg/mL (Escherichia coli [23]) [mm] | zone of inhibition at 100 µg/mL (Staphylococcus aureus [28]) [mm] | MIC (Staphylococcus aureus [29]) [µg/mL] | also measured
1 | COc1ccc(/C=N/Nc2nc3cccc(C)c3s2)cc1 | inactive | 27 (≈ 90.8 µM) | 16 | 28 (≈ 94.2 µM) | 24 | 30 (≈ 101 µM) | 10 | 18 | 15 | inactive | 20 | inactive | 12 | 13 | 16 | 13 | 26 | 10 | 21 | 32 (≈ 108 µM) | diameter of the inhibition zone (DIZ) (Fusarium verticillioides [12]): inactive; diameter of the inhibition zone (DIZ) (Fusarium verticillioides [14]): inactive; diameter of the inhibition zone (DIZ) (Fusarium verticillioides [18]): inactive; diameter of the inhibition zone (DIZ) (Fusarium verticillioides [19]): inactive; zone of inhibition at 25 µg/mL (Aspergillus niger [21]; read-out: DIZ): 8 mm; zone of inhibition at 75 µg/mL (Staphylococcus aureus [24]): 19 mm; zone of inhibition at 25 µg/mL (Klebsiella pneumoniae [25]): 14 mm; zone of inhibition at 100 µg/mL (Escherichia coli [26]): 10 mm; diameter of the inhibition zone (DIZ) (Fusarium oxysporum [27]): inactive; zone of inhibition at 50 µg/mL (Escherichia coli [30]): 12 mm; zone of inhibition at 50 µg/mL (Aspergillus niger [31]; read-out: DIZ): 11 mm; zone of inhibition at 75 µg/mL (Klebsiella pneumoniae [32]): 20 mm; zone of inhibition at 50 µg/mL (Staphylococcus aureus [33]): 14 mm; zone of inhibition at 100 µg/mL (Klebsiella pneumoniae [34]): 22 mm; zone of inhibition at 100 µg/mL (Aspergillus niger [35]; read-out: DIZ): 16 mm; zone of inhibition at 75 µg/mL (Aspergillus niger [36]; read-out: DIZ): 14 mm
2 | Cc1cccc2nc(N/N=C/c3ccc(O)cc3)sc12 | inactive | 25 (≈ 88.2 µM) | 21 | 26 (≈ 91.8 µM) | 23 | 28 (≈ 98.8 µM) | 14 | 14 | 22 | inactive | 18 | inactive | 10 | 17 | 17 | 11 | 21 | 17 | 24 | 30 (≈ 106 µM) | zone of inhibition at 75 µg/mL (Fusarium verticillioides [12]; read-out: DIZ): 13 mm; zone of inhibition at 50 µg/mL (Fusarium verticillioides [14]; read-out: DIZ): 10 mm; zone of inhibition at 25 µg/mL (Fusarium verticillioides [18]; read-out: DIZ): 8 mm; zone of inhibition at 100 µg/mL (Fusarium verticillioides [19]; read-out: DIZ): 17 mm; diameter of the inhibition zone (DIZ) (Aspergillus niger [21]): inactive; zone of inhibition at 75 µg/mL (Staphylococcus aureus [24]): 20 mm; zone of inhibition at 25 µg/mL (Klebsiella pneumoniae [25]): 14 mm; zone of inhibition at 100 µg/mL (Escherichia coli [26]): 25 mm; diameter of the inhibition zone (DIZ) (Fusarium oxysporum [27]): inactive; zone of inhibition at 50 µg/mL (Escherichia coli [30]): 19 mm; diameter of the inhibition zone (DIZ) (Aspergillus niger [31]): inactive; zone of inhibition at 75 µg/mL (Klebsiella pneumoniae [32]): 22 mm; zone of inhibition at 50 µg/mL (Staphylococcus aureus [33]): 16 mm; zone of inhibition at 100 µg/mL (Klebsiella pneumoniae [34]): 26 mm; diameter of the inhibition zone (DIZ) (Aspergillus niger [35]): inactive; diameter of the inhibition zone (DIZ) (Aspergillus niger [36]): inactive
3 | CO[C@H]1/C=C/O[C@@]2(C)Oc3c(C)c(O)c4c(O)c(c(/C=N/N5CCN(C)CC5)c(O)c4c3C2=O)NC(=O)/C(C)=C\C=C\[C@H](C)[C@H](O)[C@@H](C)[C@@H](O)[C@@H](C)[C@H](OC(C)=O)[C@@H]1C [RIFAMPIN] |  | 22 (≈ 26.7 µM) | 30 | 21 (≈ 25.5 µM) |  | 21 (≈ 25.5 µM) | 23 |  |  |  |  |  |  | 27 |  |  |  |  | 33 | 22 (≈ 26.7 µM) | MIC (Klebsiella pneumoniae [37]): 22 µg/mL (≈ 26.7 µM)
